# Source: ChEMBL document CHEMBL5724914, “Linking interpersonal differences in gut microbiota composition and drug biotransformation activity” (2024)
# Test: (§1) The drug is tested on Z-009 corresponding to pig gut metagenome with ENA study accession number: PRJEB37062 and ENA sample accession number: ERS12561809 for biotransformation under anaerobic condition. The drug concentrations were measured over 9 timepoints collected between 0 and 24 hours of incubation by liquid-chromatography-coupled mass spectrometry (LC–MS)
# Conditions: 2 µM
# Note: call rule not given here.
row,Compound,Bacterial Biotransformation
1,C[C@@H](CO)NC(=O)[C@@H]1C=C2c3cccc4[nH]cc(c34)C[C@H]2N(C)C1.O=C(O)/C=C\C(=O)O [ERGONOVINE MALEATE],Compound NOT metabolized
2,O=C(NCc1ccccc1)OCCO [BURAMATE],Compound NOT metabolized
3,CC(C)(Oc1ccc(CCNC(=O)c2ccc(Cl)cc2)cc1)C(=O)O [BEZAFIBRATE],Compound metabolized
4,OCCOCCN1CCN(C2=Nc3ccccc3Sc3ccccc32)CC1 [QUETIAPINE],Compound NOT metabolized
5,O=C(O)COCCN1CCN(C(c2ccccc2)c2ccc(Cl)cc2)CC1 (stereo not drawn) [CETIRIZINE],Compound metabolized
6,CC(=O)OCC(=O)[C@@]1(O)[C@@H](C)C[C@H]2[C@@H]3CCC4=CC(=O)C=C[C@]4(C)[C@@]3(F)[C@@H](O)C[C@@]21C [BETAMETHASONE ACETATE],Compound metabolized
7,CN1CCOC(c2ccccc2)c2ccccc2C1 (stereo not drawn) [NEFOPAM],Compound NOT metabolized

# Conditions: human gut metagenome, 24 h, 2 µM
row,Compound,Bacterial Biotransformation
1,C[C@@H](CO)NC(=O)[C@@H]1C=C2c3cccc4[nH]cc(c34)C[C@H]2N(C)C1.O=C(O)/C=C\C(=O)O [ERGONOVINE MALEATE],Compound NOT metabolized
2,O=C(NCc1ccccc1)OCCO [BURAMATE],Compound NOT metabolized
3,CC(C)(Oc1ccc(CCNC(=O)c2ccc(Cl)cc2)cc1)C(=O)O [BEZAFIBRATE],Compound metabolized
4,OCCOCCN1CCN(C2=Nc3ccccc3Sc3ccccc32)CC1 [QUETIAPINE],Compound metabolized
5,O=C(O)COCCN1CCN(C(c2ccccc2)c2ccc(Cl)cc2)CC1 (stereo not drawn) [CETIRIZINE],Compound metabolized
6,CC(=O)OCC(=O)[C@@]1(O)[C@@H](C)C[C@H]2[C@@H]3CCC4=CC(=O)C=C[C@]4(C)[C@@]3(F)[C@@H](O)C[C@@]21C [BETAMETHASONE ACETATE],Compound metabolized
7,CN1CCOC(c2ccccc2)c2ccccc2C1 (stereo not drawn) [NEFOPAM],Compound metabolized

# Conditions: human gut metagenome, 24 h, 2 µM
# Remark: another data set of the same source
row,Compound,Bacterial Biotransformation
1,C[C@@H](CO)NC(=O)[C@@H]1C=C2c3cccc4[nH]cc(c34)C[C@H]2N(C)C1.O=C(O)/C=C\C(=O)O [ERGONOVINE MALEATE],Compound NOT metabolized
2,O=C(NCc1ccccc1)OCCO [BURAMATE],Compound NOT metabolized
3,CC(C)(Oc1ccc(CCNC(=O)c2ccc(Cl)cc2)cc1)C(=O)O [BEZAFIBRATE],Compound metabolized
4,OCCOCCN1CCN(C2=Nc3ccccc3Sc3ccccc32)CC1 [QUETIAPINE],Compound NOT metabolized
5,O=C(O)COCCN1CCN(C(c2ccccc2)c2ccc(Cl)cc2)CC1 (stereo not drawn) [CETIRIZINE],Compound metabolized
6,CC(=O)OCC(=O)[C@@]1(O)[C@@H](C)C[C@H]2[C@@H]3CCC4=CC(=O)C=C[C@]4(C)[C@@]3(F)[C@@H](O)C[C@@]21C [BETAMETHASONE ACETATE],Compound metabolized
7,CN1CCOC(c2ccccc2)c2ccccc2C1 (stereo not drawn) [NEFOPAM],Compound NOT metabolized

# Test: as §1, with “WLS-006” for “Z-009”, “human” for “pig”, “ERS12561741” for “ERS12561809”
# Conditions: 2 µM
row,Compound,Bacterial Biotransformation
1,C[C@@H](CO)NC(=O)[C@@H]1C=C2c3cccc4[nH]cc(c34)C[C@H]2N(C)C1.O=C(O)/C=C\C(=O)O [ERGONOVINE MALEATE],Compound metabolized
2,O=C(NCc1ccccc1)OCCO [BURAMATE],Compound NOT metabolized
3,CC(C)(Oc1ccc(CCNC(=O)c2ccc(Cl)cc2)cc1)C(=O)O [BEZAFIBRATE],Compound metabolized
4,OCCOCCN1CCN(C2=Nc3ccccc3Sc3ccccc32)CC1 [QUETIAPINE],Compound NOT metabolized
5,O=C(O)COCCN1CCN(C(c2ccccc2)c2ccc(Cl)cc2)CC1 (stereo not drawn) [CETIRIZINE],Compound metabolized
6,CC(=O)OCC(=O)[C@@]1(O)[C@@H](C)C[C@H]2[C@@H]3CCC4=CC(=O)C=C[C@]4(C)[C@@]3(F)[C@@H](O)C[C@@]21C [BETAMETHASONE ACETATE],Compound metabolized
7,CN1CCOC(c2ccccc2)c2ccccc2C1 (stereo not drawn) [NEFOPAM],Compound metabolized

# Test: as §1, with “WLS-069” for “Z-009”, “human” for “pig”, “ERS12561748” for “ERS12561809”
# Conditions: 2 µM
row,Compound,Bacterial Biotransformation
1,C[C@@H](CO)NC(=O)[C@@H]1C=C2c3cccc4[nH]cc(c34)C[C@H]2N(C)C1.O=C(O)/C=C\C(=O)O [ERGONOVINE MALEATE],Compound metabolized
2,O=C(NCc1ccccc1)OCCO [BURAMATE],Compound NOT metabolized
3,CC(C)(Oc1ccc(CCNC(=O)c2ccc(Cl)cc2)cc1)C(=O)O [BEZAFIBRATE],Compound metabolized
4,OCCOCCN1CCN(C2=Nc3ccccc3Sc3ccccc32)CC1 [QUETIAPINE],Compound NOT metabolized
5,O=C(O)COCCN1CCN(C(c2ccccc2)c2ccc(Cl)cc2)CC1 (stereo not drawn) [CETIRIZINE],Compound metabolized
6,CC(=O)OCC(=O)[C@@]1(O)[C@@H](C)C[C@H]2[C@@H]3CCC4=CC(=O)C=C[C@]4(C)[C@@]3(F)[C@@H](O)C[C@@]21C [BETAMETHASONE ACETATE],Compound metabolized
7,CN1CCOC(c2ccccc2)c2ccccc2C1 (stereo not drawn) [NEFOPAM],Compound NOT metabolized

# Conditions: human gut metagenome, 24 h, 2 µM
# Remark: another data set of the same source
row,Compound,Bacterial Biotransformation
1,C[C@@H](CO)NC(=O)[C@@H]1C=C2c3cccc4[nH]cc(c34)C[C@H]2N(C)C1.O=C(O)/C=C\C(=O)O [ERGONOVINE MALEATE],Compound NOT metabolized
2,O=C(NCc1ccccc1)OCCO [BURAMATE],Compound NOT metabolized
3,CC(C)(Oc1ccc(CCNC(=O)c2ccc(Cl)cc2)cc1)C(=O)O [BEZAFIBRATE],Compound metabolized
4,OCCOCCN1CCN(C2=Nc3ccccc3Sc3ccccc32)CC1 [QUETIAPINE],Compound metabolized
5,O=C(O)COCCN1CCN(C(c2ccccc2)c2ccc(Cl)cc2)CC1 (stereo not drawn) [CETIRIZINE],Compound metabolized
6,CC(=O)OCC(=O)[C@@]1(O)[C@@H](C)C[C@H]2[C@@H]3CCC4=CC(=O)C=C[C@]4(C)[C@@]3(F)[C@@H](O)C[C@@]21C [BETAMETHASONE ACETATE],Compound metabolized
7,CN1CCOC(c2ccccc2)c2ccccc2C1 (stereo not drawn) [NEFOPAM],Compound NOT metabolized

# Conditions: human gut metagenome, 24 h, 2 µM
# Remark: another data set of the same source
row,Compound,Bacterial Biotransformation
1,C[C@@H](CO)NC(=O)[C@@H]1C=C2c3cccc4[nH]cc(c34)C[C@H]2N(C)C1.O=C(O)/C=C\C(=O)O [ERGONOVINE MALEATE],Compound NOT metabolized
2,O=C(NCc1ccccc1)OCCO [BURAMATE],Compound NOT metabolized
3,CC(C)(Oc1ccc(CCNC(=O)c2ccc(Cl)cc2)cc1)C(=O)O [BEZAFIBRATE],Compound NOT metabolized
4,OCCOCCN1CCN(C2=Nc3ccccc3Sc3ccccc32)CC1 [QUETIAPINE],Compound NOT metabolized
5,O=C(O)COCCN1CCN(C(c2ccccc2)c2ccc(Cl)cc2)CC1 (stereo not drawn) [CETIRIZINE],Compound metabolized
6,CC(=O)OCC(=O)[C@@]1(O)[C@@H](C)C[C@H]2[C@@H]3CCC4=CC(=O)C=C[C@]4(C)[C@@]3(F)[C@@H](O)C[C@@]21C [BETAMETHASONE ACETATE],Compound metabolized
7,CN1CCOC(c2ccccc2)c2ccccc2C1 (stereo not drawn) [NEFOPAM],Compound metabolized

# Conditions: human gut metagenome, 24 h, 2 µM
# Remark: another data set of the same source
row,Compound,Bacterial Biotransformation
1,C[C@@H](CO)NC(=O)[C@@H]1C=C2c3cccc4[nH]cc(c34)C[C@H]2N(C)C1.O=C(O)/C=C\C(=O)O [ERGONOVINE MALEATE],Compound metabolized
2,O=C(NCc1ccccc1)OCCO [BURAMATE],Compound NOT metabolized
3,CC(C)(Oc1ccc(CCNC(=O)c2ccc(Cl)cc2)cc1)C(=O)O [BEZAFIBRATE],Compound metabolized
4,OCCOCCN1CCN(C2=Nc3ccccc3Sc3ccccc32)CC1 [QUETIAPINE],Compound metabolized
5,O=C(O)COCCN1CCN(C(c2ccccc2)c2ccc(Cl)cc2)CC1 (stereo not drawn) [CETIRIZINE],Compound metabolized
6,CC(=O)OCC(=O)[C@@]1(O)[C@@H](C)C[C@H]2[C@@H]3CCC4=CC(=O)C=C[C@]4(C)[C@@]3(F)[C@@H](O)C[C@@]21C [BETAMETHASONE ACETATE],Compound metabolized
7,CN1CCOC(c2ccccc2)c2ccccc2C1 (stereo not drawn) [NEFOPAM],Compound metabolized

# Test: as §1, with “WLS-077” for “Z-009”, “human” for “pig”, “ERS12561750” for “ERS12561809”
# Conditions: 2 µM
row,Compound,Bacterial Biotransformation
1,C[C@@H](CO)NC(=O)[C@@H]1C=C2c3cccc4[nH]cc(c34)C[C@H]2N(C)C1.O=C(O)/C=C\C(=O)O [ERGONOVINE MALEATE],Compound metabolized
2,O=C(NCc1ccccc1)OCCO [BURAMATE],Compound NOT metabolized
3,CC(C)(Oc1ccc(CCNC(=O)c2ccc(Cl)cc2)cc1)C(=O)O [BEZAFIBRATE],Compound metabolized
4,OCCOCCN1CCN(C2=Nc3ccccc3Sc3ccccc32)CC1 [QUETIAPINE],Compound NOT metabolized
5,O=C(O)COCCN1CCN(C(c2ccccc2)c2ccc(Cl)cc2)CC1 (stereo not drawn) [CETIRIZINE],Compound metabolized
6,CC(=O)OCC(=O)[C@@]1(O)[C@@H](C)C[C@H]2[C@@H]3CCC4=CC(=O)C=C[C@]4(C)[C@@]3(F)[C@@H](O)C[C@@]21C [BETAMETHASONE ACETATE],Compound NOT metabolized
7,CN1CCOC(c2ccccc2)c2ccccc2C1 (stereo not drawn) [NEFOPAM],Compound NOT metabolized
